# Key:
# Sprague Dawley rats = test: 14-day repeat-dose intranasal toxicity study with 14-day recovery in rats (Study 700041); format: in vivo, rat; details: for clinical signs: male and female; for microscopic changes in nasal cavities: male and/or female
# Description: (§1) The animals were monitored for mortality, clinical signs, respiratory measurements, body weights, food consumption, and body temperature. Ophthalmoscopic examinations and respiratory function tests were performed on all animals at scheduled timepoints. Clinical pathology assessments (hematology, coagulation, clinical chemistry, and urinalysis) were evaluated at termination. […] Following dosing, the Main animals were euthanized and subjected to a complete necropsy examination on Day 15. […] TK animals were euthanized after the last blood collection and discarded without further examination. At terminal euthanasia, selected tissues/organs were weighed, and microscopic evaluations of a standard set of tissues including the nasal turbinates (4 sections) and brain (7 sections) were performed for all Main and Recovery study animals.
# (§2) Following dosing, animals in the Main group were euthanized and subjected to a necropsy examination on Day 15.
# Toxicity was based on the following parameters monitored: mortality/morbidity, clinical observations, body weights/gains, food consumption, ophthalmoscopy, clinical pathology (hematology, coagulation, chemistry, and urinalysis), necropsy observations, selected organ weights, and microscopic examination of a complete set of standard tissues including 4 cross levels of the nasal cavity and 7 sections of the brain.
# [1] = Toxicokinetics in Study 700041; format: in vivo; details: rat, intranasal 20 mg/kg/day, Day 14, Male
# Description: as §1, §2
# [2] = Toxicokinetics in Study 62958 (plasma 5MeODMT, LC/MS/MS); format: in vivo; details: dog, daily intranasal instillation, 7-day treatment period
# male Sprague-Dawley rats = test: Functional Observational Battery (FOB), effects on CNS function (ITR study 15951); format: in vivo; details: rat
# Description: The test and control/vehicle items were administered by single dose intranasal administration to both nostrils, as shown in Table 1.
# Parameters monitored included mortality and clinical signs. General behavioral changes were assessed using FOB at 6 timepoints: before dosing, and at 15 minutes, 1, 2, 4, and 24 hours postdosing. On each occasion, the FOB was performed at 4 stages: when the animals were in their home cage, while handling the animals, when the animals were freely moving in an open-field, and when they received diverse stimuli for reactivity evaluation. The body temperature and neuromuscular strength were also measured on each of the occasions detailed above.
# dogs = test: Maximum tolerated dose followed by 7-day repeat-dose toxicology in dogs (Study 62958); format: in vivo; details: dog
# Description: In support of these objectives, the study consisted of 2 individual phases.
# The test item was administered once by intranasal instillation to one male and female dog for up to 5 dose levels until the highest tolerable dose (MTD) was determined as described in Table 5.
# During Phase 2, assessments of mortality, clinical signs, body weights and food consumption were performed. […] Following the last dosing, all animals were euthanized and subjected to a necropsy examination on Day 8. The necropsy consisted of an external examination; including reference to all clinically-recorded lesions, as well as a detailed internal examination. Study plan specific tissues/organs were collected and preserved following necropsy but were not further examined microscopically.
# Dog = test: Summary of clinical observations in applicant-sponsored dog toxicity studies; format: in vivo; details: Dog 1.0 mg/kg (33 mg HED), preliminary data, ongoing study
# Text: Based on preliminary data from another ongoing study in dogs, it has been observed that the site of blood sampling in dogs may impact the measured plasma exposure. Samples from the jugular vein may result in higher apparent exposure levels than samples from the cephalic vein, which might be due to the local transmucosal route of administration (also reported in the scientific literature (Illum, 2003; Sohlberg, 2013)). Therefore, dose escalation criteria for the Phase 1 Single Ascending Dose study are based on assessment of clinical criteria, safety factors and exposure. A maximum dose of 14 mg has been designated.
# [3] = Toxicokinetics in Study 62959; format: in vivo; details: dog
# Description: (§3) Assessments of mortality, clinical signs, olfactory reflex, body weights, food consumption, ophthalmology, and electrocardiograms were performed. In addition, clinical pathology assessments (hematology, coagulation, clinical chemistry and urinalysis) were evaluated once pretreatment and at termination. Blood samples were collected from the jugular vein of all animals on Days 1 and 14, at up to 8 time points relative to treatment, for analysis of test item concentration in plasma and the subsequent calculation of toxicokinetic parameters. Following dosing, the Main animals were euthanized and subjected to a complete necropsy examination on Day 15. […] All Main and Recovery study animals underwent complete necropsy examinations, selected tissues/organs were retained, and microscopic evaluations of a standard set of tissues were performed.
# For toxicokinetics, a series of 8 blood samples were collected from the jugular vein from all treated animals on each of Days 1 and 14 of the treatment period at 2, 5, 10, 15, 30, and 60 minutes as well as 3 and 8 hours after treatment.
# Beagle dogs = test: 14-day repeat-dose intranasal toxicity study with 14-day recovery in dogs (Study 62959); format: in vivo; details: dog; for animals with increased triglyceride level: vs control
# Description: as §3
# [4] = rat, dose levels ≤75 mg/kg/day for 14 days
# [5] = single intranasal 1, 5, and 10 mg/kg, all dose levels
# [6] = dose escalation phase, single intranasal 2-5 mg/kg
# [7] = phase 2, MTD once daily 5 days then twice daily Days 6 and 7
# [8] = intranasal 0.8 mg/kg/day, Day 1, Female
# [9] = intranasal 0.8 mg/kg/day, Day 1, Male
# [10] = intranasal 0.8 mg/kg/day, Day 14, Female
smiles,measurement,setting,value
"COc1ccc2[nH]cc(CCN(C)C)c2c1 [BPL-5MEO, 5-methoxy-N,N-dimethyltryptamine]",adverse effect on reproductive tissues,Sprague Dawley rats; 14-day pivotal GLP intranasal toxicity studies in rats and dogs,no evidence of an adverse effect on reproductive tissues
same,Thymus Mean Absolute Weight,"Sprague Dawley rats; male rats, Group 2 (5 mg/kg/day), compared to the control value",−4 percentage
same,respiratory rate,"Sprague Dawley rats; rat, 20 minutes postdose, vs pretreatment or control",decreases in respiratory rates
same,body temperature,"Sprague Dawley rats; rat, Day 14, 15 and 30 minutes postdose, all treated male animals",slight body temperature increases
same,clinical signs,"Sprague Dawley rats; rat, Group 2 (Low Dose) 5 mg/kg/day","incoordination, shaking, salivation, decreased activity, lying on cage floor and sensitive to touch"
same,clinical signs,"Sprague Dawley rats; rat, Group 3 (Mid Dose) 20 mg/kg/day","incoordination, shaking (or tremor), increased or shallow respiration, mydriasis, salivation, decreased activity, partially closed eyes, lying on cage floor and sensitive to touch"
same,clinical signs,"Sprague Dawley rats; rat, Group 4 (High Dose) 75 mg/kg/day","incoordination, shaking (or tremor), increased or shallow respiration, mydriasis, salivation, decreased activity, partially closed eyes, lying on cage floor and sensitive to touch"
same,macroscopic findings,"Sprague Dawley rats; rat, Main and Recovery groups",no macroscopic findings
same,"microscopic findings in respiratory, transitional and/or olfactory epithelium of nasal cavities 1-4","Sprague Dawley rats; rat, Main group",minimal to mild changes
same,microscopic changes in nasal cavities,"Sprague Dawley rats; rat, Main group, 20 mg/kg/day (Group 3)",Minimal degeneration of the respiratory epithelium of the nasal cavities 1 and 2
same,microscopic changes in nasal cavities,"Sprague Dawley rats; rat, Main group, 5 and/or 20 mg/kg/day (Group 2 and 3)",Minimal degeneration of the olfactory epithelium of the nasal cavities 2 and 3
same,reversibility of nasal microscopic changes,"Sprague Dawley rats; rat, Recovery group, 14-day recovery period",incomplete but progressive ongoing reversal of epithelial degeneration
same,body weight gain,"Sprague Dawley rats; rat, both sexes, Days 1 to 14","Slight, generally dose-dependent body weight gain suppression"
same,activated partial thromboplastin times (APTT),"Sprague Dawley rats; rat, both sexes, mid (20 mg/kg/day) and high (75 mg/kg/day) dose groups, vs control",increased
same,clinical chemistry and urinalysis,Sprague Dawley rats; [4],no changes in clinical chemistry and urinalysis parameters
same,food consumption,Sprague Dawley rats; [4],no changes in food consumption
same,ocular effect,Sprague Dawley rats; [4],no adverse ocular effect
same,mortality,"Sprague Dawley rats; rat, intranasal 5, 20, 75 mg/kg/day, 14 days",No mortality
same,tolerability,"Sprague Dawley rats; rat, intranasal, dose levels ≤75 mg/kg/day for 14 consecutive days",tolerated
same,"platelet, neutrophil, monocyte and basophil counts","Sprague Dawley rats; rat, mid and high dose groups, both sexes, vs control",slightly increased
same,t1/2,[1],8.58 min
same,accumulation,[2],did not accumulate
same,clinical sign in one animal,male Sprague-Dawley rats; single intranasal 10 mg/kg,twitching
same,FOB autonomic domain,male Sprague-Dawley rats; [5],"salivation, piloerection, increased respiration, dilated pupils and changes in body temperature"
same,FOB neurological (sensorimotor)/neuromuscular domain,male Sprague-Dawley rats; [5],transient changes in gait (difficulty in movement)
same,FOB behavioral domain,"male Sprague-Dawley rats; single intranasal 1.5, 3, 10 mg/kg, 15 minutes postdose","transient decreased activity, lying on the cage floor, and decreased rearing"
same,clinical signs in some animals,male Sprague-Dawley rats; single intranasal 3 and 10 mg/kg,"Tremors, salivation, and gasping"
same,clinical signs immediately following dosing,"male Sprague-Dawley rats; single intranasal, all dose groups","decreased activity, lying on the cage floor, shallow/increased respiration and dilated pupils"
same,food intake,"dogs; dose escalation phase, after Dose 1 and Dose 2",Slight decreases in food intake
same,clinical signs,dogs; [6],"gnawing cage wire, dilated pupils, changes in respiration, incoordination, decreased activity, vocalization, salivation, erect penis (for males) and shaking"
same,mortality and bodyweights,dogs; [6],no BPL-5MEO-related effects on mortality or bodyweights
same,duration of convulsion shortly after dosing,"dogs; male animal, last escalating dose 3.5 mg/kg/day",8 min
same,clinical signs,dogs; [7],"muscle stiffness, gnawing cage wire, dilated pupils, changes in respiration, decreased activity, incoordination, vocalization, salivation, erect penis (for the male) and shaking"
same,mortality and bodyweights,dogs; [7],no test item-related effects on mortality or bodyweights
same,Clinical observation,Dog,Slight tremor
same,AUC(0-inf),"[3]; Beagle, plasma, inhaled or intranasal, 1.5 mg/kg/day, combined for both sexes, read-out: AUCINF_obs corresponding to NOAEL",220 ng·h/mL
same,Cmax,"[3]; intranasal 0.4 mg/kg/day, Day 1, Male",343 ng/mL
same,t1/2,"[3]; intranasal 0.4 mg/kg/day, Day 14, Female",42.4 min
same,Tmax,"[3]; intranasal 0.4 mg/kg/day, Day 14, Male",6.66 min
same,AUCINF—obs,[3]; [8],265 ng·h/mL
same,t1/2,[3]; [8],43.8 min
same,AUCINF—obs,[3]; [9],160 ng·h/mL
same,Tmax,[3]; [9],6.66 min
same,AUC0-Tlast,[3]; [10],248 ng·h/mL
same,Cmax,[3]; [10],244 ng/mL
same,Tmax,"[3]; intranasal 0.8 mg/kg/day, Day 14, Male",6.66 min
same,Tmax,"[3]; intranasal 2.5 & […], Day 1, Female",6.66 min
same,t1/2,"[3]; intranasal 2.5 & […], Day 14, Male",49 min
same,body temperature,"Beagle dogs; Day 14, high dose group, both sexes, 15 and 30 minutes postdose",Transient body temperature increases
same,"Triglyceride, Mean ± SD Day 14","Beagle dogs; Group 2, 0.4 mg/kg/day, Females",0.46 ± 0.61 mmol/L
same,"Triglyceride, Mean ± SD Day 14","Beagle dogs; Group 2, 0.4 mg/kg/day, Males",0.40 ± 0.11 mmol/L
same,"Triglyceride, Mean ± SD Day 14","Beagle dogs; Group 3, 0.8 mg/kg/day, Females",0.47 ± 0.22 mmol/L
same,"Triglyceride, Mean ± SD Day 14","Beagle dogs; Group 3, 0.8 mg/kg/day, Males",0.44 ± 0.07 mmol/L
same,animals with increased triglyceride level,Beagle dogs; Group 3 female,1/3
same,animals with increased triglyceride level,Beagle dogs; Group 4 females,4/5
same,animals with increased triglyceride level,Beagle dogs; Group 4 male,1/5
same,additional clinical observations,Beagle dogs; Mid and High dose groups,eye discharge and shaking
same,time to resolution of clinical signs,Beagle dogs; all treated groups,≤ 90 min
same,transient clinical observation,Beagle dogs; all treated groups,"incoordination, vocalization, mydriasis, decreased or increased activity, increased respiration, gnawing cage wire, excessive licking of nose or lips and circling"
same,additional clinical observation,Beagle dogs; high dose male animals,Erect penis

# Reference: US20230382858A1 (Beckley Psytech Limited, priority 2020, published 2023)
